Experiment: Effective concentration for activation of RNase L

First: Nc1ncnc2c1ncn2C[C@H](OP(=O)(O)OC[C@H]1O[C@@H](n2cnc3c(N)ncnc32)[C@H](OP(=O)(O)OC[C@H]2O[C@@H](n3cnc4c(N)ncnc43)[C@H](O)[C@@H]2O)[C@@H]1O)[C@H](O)CO[PH](=O)O[C@@H]1[C@H](O)[C@@H](COP(=O)(O)O)O[C@H]1n1cnc2c(N)ncnc21 (stereo partly drawn)
Second: Nc1ncnc2c1ncn2C[C@H](OP(=O)(O)OC[C@H]1O[C@@H](n2cnc3c(N)ncnc32)[C@H](O)[C@@H]1O)[C@H](O)COP(=O)(O)O[C@@H]1[C@H](O)[C@@H](CO[PH](=O)O[C@@H]2[C@H](O)[C@@H](COP(=O)(O)O)O[C@H]2n2cnc3c(N)ncnc32)O[C@H]1n1cnc2c(N)ncnc21 (stereo partly drawn)
The EC50 of the first is 5.3-fold higher: 9 nM for the first, 1.7 nM for the second.

With `Nc1ncnc2c1ncn2[C@@H]1O[C@H](COP(=O)(O)O[C@@H]2[C@H](O)[C@@H](COP(=O)(O)O[C@@H]3[C@H](O)[C@@H](COP(=O)(O)O[C@@H]4[C@H](O)[C@@H](COP(=O)(O)O)O[C@H]4n4cnc5c(N)ncnc54)O[C@H]3n3cnc4c(N)ncnc43)O[C@H]2n2cnc3c(N)ncnc32)[C@@H](O)[C@H]1O` the EC50 was 1 nM.
